Numbers after ± are expanded uncertainties.
Tests used:
[1] = for molar entropy: 101.33 kPa, Small (less than 1 g) adiabatic calorimetry; for vapor or sublimation pressure: Closed cell (Static) method; for Triple point temperature: Adiabatic calorimetry
[2] = Molar enthalpy of transition or fusion; settings: Adiabatic calorimetry
[3] = molar enthalpy of vaporization or sublimation; settings: 305.12 K; Liquid; Static calorimetry

Compound C=CC(C)(C)O [2-methyl-3-buten-2-ol] has a molar entropy ([1]; 5 K, Crystal 2) of 0.1073 ± 0.025 J/K/mol, a molar entropy ([1]; 10 K, Crystal 2) of 0.901 ± 0.045 J/K/mol and a molar entropy ([1]; 15 K, Crystal 2) of 2.701 ± 0.082 J/K/mol. For the same compound, the molar entropy ([1]; 20 K, Crystal 2) was 5.385 ± 0.13 J/K/mol, the molar entropy ([1]; 25 K, Crystal 2) was 8.631 ± 0.16 J/K/mol and the molar entropy ([1]; 30 K, Crystal 2) was 12.21 ± 0.22 J/K/mol. For the same compound, the molar entropy ([1]; 35 K, Crystal 2) was 15.96 ± 0.25 J/K/mol, the molar entropy ([1]; 40 K, Crystal 2) was 19.77 ± 0.28 J/K/mol and the molar entropy ([1]; 45 K, Crystal 2) was 23.58 ± 0.31 J/K/mol. The molar entropy ([1]; 50 K, Crystal 2) was 27.38 ± 0.34 J/K/mol, the molar entropy ([1]; 60 K, Crystal 2) was 34.85 ± 0.4 J/K/mol and the molar entropy ([1]; 70 K, Crystal 2) was 42.16 ± 0.46 J/K/mol. For the same compound, the molar entropy ([1]; 80 K, Crystal 2) was 49.35 ± 0.51 J/K/mol, the molar entropy ([1]; 88.1 K, Crystal 1) was 57.03 ± 0.58 J/K/mol and the molar entropy ([1]; 88.1 K, Crystal 2) was 55.1 ± 0.56 J/K/mol. For the same compound, the molar entropy ([1]; 90 K, Crystal 1) was 58.35 ± 0.61 J/K/mol, the molar entropy ([1]; 100 K, Crystal 1) was 65.19 ± 0.66 J/K/mol and the molar entropy ([1]; 110 K, Crystal 1) was 71.91 ± 0.72 J/K/mol. The molar entropy ([1]; 120 K, Crystal 1) was 78.52 ± 0.77 J/K/mol, the molar entropy ([1]; 130 K, Crystal 1) was 85.1 ± 0.81 J/K/mol and the molar entropy ([1]; 140 K, Crystal 1) was 91.7 ± 0.86 J/K/mol. The molar entropy ([1]; 150 K, Crystal 1) was 98.37 ± 0.9 J/K/mol, the molar entropy ([1]; 160 K, Crystal 1) was 105.2 ± 1 J/K/mol and the molar entropy ([1]; 170 K, Crystal 1) was 112.2 ± 1 J/K/mol. The molar entropy ([1]; 180 K, Crystal 1) was 119.4 ± 1 J/K/mol, the molar entropy ([1]; 190 K, Crystal 1) was 126.8 ± 1.1 J/K/mol and the molar entropy ([1]; 200 K, Crystal 1) was 134.3 ± 1.2 J/K/mol. For the same compound, the molar entropy ([1]; 210 K, Crystal 1) was 141.9 ± 1.2 J/K/mol, the molar entropy ([1]; 220 K, Crystal 1) was 149.7 ± 1.2 J/K/mol and the molar entropy ([1]; 230 K, Crystal 1) was 157.5 ± 1.4 J/K/mol. The molar entropy ([1]; 240 K, Crystal 1) was 165.4 ± 1.4 J/K/mol, the molar entropy ([1]; 245.03 K, Crystal 1) was 169.4 ± 1.4 J/K/mol and the molar entropy ([1]; 245.03 K, Liquid) was 190.6 ± 1.6 J/K/mol. For the same compound, the molar entropy ([1]; 250 K, Liquid) was 194.6 ± 1.6 J/K/mol, the molar entropy ([1]; 260 K, Liquid) was 202.4 ± 1.7 J/K/mol and the molar entropy ([1]; 270 K, Liquid) was 210.3 ± 1.7 J/K/mol. The molar entropy ([1]; 273.15 K, Liquid) was 212.8 ± 1.8 J/K/mol, the “vapor or sublimation pressure” value ([1]; 279.12 K, Liquid) was 0.7477 ± 0.012 kPa and the “vapor or sublimation pressure” value ([1]; 279.82 K, Liquid) was 0.7934 ± 0.012 kPa. For the same compound, the molar entropy ([1]; 280 K, Liquid) was 218.2 ± 1.8 J/K/mol, the “vapor or sublimation pressure” value ([1]; 280.58 K, Liquid) was 0.8399 ± 0.012 kPa and the “vapor or sublimation pressure” value ([1]; 280.94 K, Liquid) was 0.8608 ± 0.013 kPa. The “vapor or sublimation pressure” value ([1]; 281.64 K, Liquid) was 0.9104 ± 0.014 kPa, the “vapor or sublimation pressure” value ([1]; 283.31 K, Liquid) was 1.026 ± 0.015 kPa and the “vapor or sublimation pressure” value ([1]; 283.94 K, Liquid) was 1.075 ± 0.016 kPa. For the same compound, the “vapor or sublimation pressure” value ([1]; 285.82 K, Liquid) was 1.23 ± 0.02 kPa, the “vapor or sublimation pressure” value ([1]; 286.31 K, Liquid) was 1.271 ± 0.021 kPa and the “vapor or sublimation pressure” value ([1]; 288.03 K, Liquid) was 1.447 ± 0.021 kPa. The “vapor or sublimation pressure” value ([1]; 288.63 K, Liquid) was 1.504 ± 0.021 kPa, the molar entropy ([1]; 290 K, Liquid) was 226.1 ± 1.8 J/K/mol and the “vapor or sublimation pressure” value ([1]; 291.06 K, Liquid) was 1.787 ± 0.024 kPa. For the same compound, the “vapor or sublimation pressure” value ([1]; 291.09 K, Liquid) was 1.78 ± 0.024 kPa, the “vapor or sublimation pressure” value ([1]; 293.17 K, Liquid) was 2.061 ± 0.026 kPa and the “vapor or sublimation pressure” value ([1]; 293.35 K, Liquid) was 2.084 ± 0.026 kPa. The “vapor or sublimation pressure” value ([1]; 295.88 K, Liquid) was 2.467 ± 0.032 kPa, the “vapor or sublimation pressure” value ([1]; 295.92 K, Liquid) was 2.466 ± 0.032 kPa and the “vapor or sublimation pressure” value ([1]; 298.02 K, Liquid) was 2.863 ± 0.036 kPa. The molar entropy ([1]; 298.15 K, Liquid) was 232.6 ± 1.9 J/K/mol, the “vapor or sublimation pressure” value ([1]; 298.84 K, Liquid) was 2.995 ± 0.038 kPa and the molar entropy ([1]; 300 K, Liquid) was 234.1 ± 1.9 J/K/mol. For the same compound, the “vapor or sublimation pressure” value ([1]; 301.36 K, Liquid) was 3.534 ± 0.044 kPa, the “vapor or sublimation pressure” value ([1]; 301.37 K, Liquid) was 3.532 ± 0.044 kPa and the “vapor or sublimation pressure” value ([1]; 303.03 K, Liquid) was 3.938 ± 0.045 kPa. For the same compound, the “vapor or sublimation pressure” value ([1]; 303.4 K, Liquid) was 4.006 ± 0.046 kPa, the “vapor or sublimation pressure” value ([1]; 306.13 K, Liquid) was 4.784 ± 0.057 kPa and the “vapor or sublimation pressure” value ([1]; 306.16 K, Liquid) was 4.776 ± 0.057 kPa. For the same compound, the “vapor or sublimation pressure” value ([1]; 307.86 K, Liquid) was 5.284 ± 0.067 kPa, the “vapor or sublimation pressure” value ([1]; 308.18 K, Liquid) was 5.405 ± 0.068 kPa and the molar entropy ([1]; 310 K, Liquid) was 242 ± 1.9 J/K/mol. The “vapor or sublimation pressure” value ([1]; 311.01 K, Liquid) was 6.393 ± 0.075 kPa, the “vapor or sublimation pressure” value ([1]; 311.02 K, Liquid) was 6.405 ± 0.075 kPa and the “vapor or sublimation pressure” value ([1]; 312.7 K, Liquid) was 7.049 ± 0.082 kPa. The “vapor or sublimation pressure” value ([1]; 313.18 K, Liquid) was 7.252 ± 0.086 kPa, the “vapor or sublimation pressure” value ([1]; 313.25 K, Liquid) was 7.27 ± 0.085 kPa and the “vapor or sublimation pressure” value ([1]; 315.8 K, Liquid) was 8.467 ± 0.087 kPa. For the same compound, the “vapor or sublimation pressure” value ([1]; 315.81 K, Liquid) was 8.457 ± 0.088 kPa, the “vapor or sublimation pressure” value ([1]; 315.98 K, Liquid) was 8.484 ± 0.088 kPa and the “vapor or sublimation pressure” value ([1]; 318.16 K, Liquid) was 9.605 ± 0.11 kPa. For the same compound, the molar entropy ([1]; 320 K, Liquid) was 250 ± 2 J/K/mol, the “vapor or sublimation pressure” value ([1]; 320.59 K, Liquid) was 11.11 ± 0.11 kPa and the “vapor or sublimation pressure” value ([1]; 320.62 K, Liquid) was 11.02 ± 0.12 kPa. The “vapor or sublimation pressure” value ([1]; 320.82 K, Liquid) was 11.12 ± 0.12 kPa, the “vapor or sublimation pressure” value ([1]; 322.89 K, Liquid) was 12.51 ± 0.15 kPa and the “vapor or sublimation pressure” value ([1]; 322.94 K, Liquid) was 12.48 ± 0.14 kPa. The “vapor or sublimation pressure” value ([1]; 325.36 K, Liquid) was 14.31 ± 0.15 kPa, the “vapor or sublimation pressure” value ([1]; 325.39 K, Liquid) was 14.24 ± 0.16 kPa and the “vapor or sublimation pressure” value ([1]; 325.66 K, Liquid) was 14.41 ± 0.16 kPa. The “vapor or sublimation pressure” value ([1]; 328.07 K, Liquid) was 16.34 ± 0.18 kPa, the molar entropy ([1]; 330 K, Liquid) was 257.9 ± 2.1 J/K/mol and the molar entropy ([1]; 340 K, Liquid) was 265.7 ± 2.1 J/K/mol. The molar entropy ([1]; 350 K, Liquid) was 273.5 ± 2.1 J/K/mol, the molar entropy ([1]; 360 K, Liquid) was 281.1 ± 2.3 J/K/mol and the molar entropy ([1]; 370 K, Liquid) was 288.5 ± 2.3 J/K/mol. For the same compound, the Triple point temperature ([1]; Crystal 1) was 245.03 ± 0.05 K, the Triple point temperature ([1]; Crystal 2) was 88.1 ± 0.3 K and the “Molar enthalpy of transition or fusion” value ([2]; Crystal 1) was 1.243 ± 0.0112 kcal/mol. The “Molar enthalpy of transition or fusion” value ([2]; Crystal 2) was 0.0406 ± 0.011 kcal/mol and the molar enthalpy [3] was 11.2 ± 0.382 kcal/mol.

From the NIST ThermoML archive (doi:10.1016/j.jct.2015.07.028)
